In patent US20170253607A1, “LONG-ACTING HIV PROTEASE INHIBITOR” (Shionogi & Co., Ltd., priority 2014, published 2017):

target: HIV-1 PR (Human immunodeficiency virus type 1 group M subtype B, UniProt P04585); experiment: HIV-protease inhibitory activity assay (FRET peptide substrate); type: biochemical; settings: Test Example 1
Experimental: Test Example 1: HIV-Protease Inhibitory Activity Assay
The HIV-1 PR assay was performed by using a FRET (Fluorescence Resonance Energy Transfer) peptide substrate (AnaSpec, Inc., Fremont, Calif.). Initially in the intact FRET peptide, the fluorescence of HiLyte Fluor 488 is quenched by QXL 520. Upon substrate cleavage by PR, the fluorescence is recovered and can be monitored. Test compounds diluted in DMSO was plated to the wells of 384-well plate. Then, mixed with assay buffer (0.1 mol/L NaAc containing 0.5 mol/L NaCl, 1 mmol/L EDTA, 1 mmol/L DTT, and 0.05% Tween 20, pH 4.8) in the presence or absence of HIV-1 PR (0.83 ng), and let it stand for 5 minutes at room temperature. Background fluorescence intensity was measured and let it stand for another 15 minutes at room temperature. The enzyme reaction was started by adding substrate diluted in assay buffer at final concentration of 2 μmol/L, and let it stand for 60 minutes at room temperature. After 60 minutes, the fluorescence intensity was measured. Fluorescence intensity was measured with excitation and emission wavelengths of 485 nm and 535 nm, respectively.
IC50 values were determined using non-linear regression four-parameter logistic equation, y=A+((B−A)/(1+((C/x)̂D))) where A=minimum inhibition, B=maximum inhibition, C=log IC50, D=slope factor, x=concentration of compound and y=% inhibition.

Point of comparison: `CC(C)CN(C[C@@H](O)[C@H](Cc1ccc(OCc2ccc(-c3ccc(F)cc3F)cc2C(=O)O)cc1)NC(=O)O[C@H]1CO[C@@]2(C)OCC[C@@H]12)S(=O)(=O)c1ccc2ncsc2c1` [Compound I-18], IC50 1.63 nM. Against it:
- COc1ccc(S(=O)(=O)N(CC(C)C)C[C@@H](O)[C@H](Cc2ccc(OCc3ccccc3-c3sc(-c4ccccc4)nc3C(=O)O)cc2)NC(=O)O[C@H]2CO[C@H]3OCC[C@H]32)cc1 [Compound I-3] — 1.6-fold lower, 1.02 nM
- COc1ccc(S(=O)(=O)N(CC(C)C)C[C@@H](O)[C@H](Cc2ccc(COc3ccccc3-c3sc4c(c3C(=O)O)CC(C)(C)CC4)cc2)NC(=O)O[C@H]2CO[C@@]3(C)OCC[C@@H]23)cc1 [Compound I-4] — within 1.5-fold, 1.69 nM
- COc1ccc(S(=O)(=O)N(CC(C)C)C[C@@H](O)[C@H](Cc2ccc(OCc3sc4ccccc4c3C(=O)O)cc2)NC(=O)O[C@H]2CO[C@@]3(C)OCC[C@@H]23)cc1 [Compound I-5] — within 1.5-fold, 1.15 nM
- COc1ccc(S(=O)(=O)N(CC(C)C)C[C@@H](O)[C@H](Cc2ccc(C#Cc3sc4c(c3C(=O)O)CC(C)(C)CC4)cc2)NC(=O)O[C@H]2CO[C@@]3(C)OCC[C@@H]23)cc1 [Compound I-11] — within 1.5-fold, 1.4 nM
- COc1ccc(S(=O)(=O)N(CC(C)C)C[C@@H](O)[C@H](Cc2ccc(NCc3sc4c(c3C(=O)O)CC(C)(C)CC4)cc2)NC(=O)O[C@H]2CO[C@@]3(C)OCC[C@@H]23)cc1 [Compound I-14] — within 1.5-fold, 1.7 nM
- CC(C)CN(C[C@@H](O)[C@H](Cc1ccc(OCc2ccccc2-c2sc3c(c2C(=O)O)CC(C)(C)CC3)cc1)NC(=O)O[C@H]1CO[C@@]2(C)OCC[C@@H]12)S(=O)(=O)c1ccc(N)c(/C=C/C(N)=O)c1 [Compound I-16] — within 1.5-fold, 2.22 nM
- CC(C)CN(C[C@@H](O)[C@H](Cc1ccc(OCc2ccccc2-c2sc3c(c2C(=O)O)CC(C)(C)CC3)cc1)NC(=O)O[C@H]1CO[C@@]2(C)OCC[C@@H]12)S(=O)(=O)c1ccc(N)c(CCC(N)=O)c1 [Compound I-17] — within 1.5-fold, 1.24 nM
- COc1ccc(S(=O)(=O)N(CC(C)C)C[C@@H](O)[C@H](Cc2ccc(OCc3ccccc3-c3sc4c(c3C(N)=O)CC(C)(C)CC4)cc2)NC(=O)O[C@H]2CO[C@@]3(C)OCC[C@@H]23)cc1 [Compound I-20] — within 1.5-fold, 1.77 nM
- COc1ccc(S(=O)(=O)N(CC(C)C)C[C@@H](O)[C@H](Cc2ccc(OCc3ccc(-c4ccc(F)cc4F)cc3-c3noc(=O)[nH]3)cc2)NC(=O)O[C@H]2CO[C@@]3(C)OCC[C@@H]23)cc1 [Compound I-21] — within 1.5-fold, 1.39 nM
- COc1ccc(S(=O)(=O)N(CC(C)C)C[C@@H](O)[C@H](Cc2ccc(OCc3ccc(-c4ccc(F)cc4F)cc3-c3nnn[nH]3)cc2)NC(=O)O[C@H]2CO[C@@]3(C)OCC[C@@H]23)cc1 [Compound I-22] — 1.6-fold lower, 0.99 nM
- COc1ccc(S(=O)(=O)N(CC(C)C)C[C@@H](O)[C@H](Cc2ccc(OCc3ccc(-c4ccc(F)cc4F)cc3C(=O)NC(N)=O)cc2)NC(=O)O[C@H]2CO[C@@]3(C)OCC[C@@H]23)cc1 [Compound I-24] — within 1.5-fold, 1.39 nM
- COc1ccc(S(=O)(=O)N(CC(C)C)C[C@@H](O)[C@H](Cc2ccc(OCc3ccc(-c4ccc(F)cc4F)cc3C(=O)NC(=O)NC(C)(C)C)cc2)NC(=O)O[C@H]2CO[C@@]3(C)OCC[C@@H]23)cc1 [Compound I-25] — within 1.5-fold, 2.07 nM
- CC(C)CN(C[C@@H](O)[C@H](Cc1ccccc1)NC(=O)O[C@H]1CO[C@@]2(C)OCC[C@@H]12)S(=O)(=O)c1ccc2nc(NCc3sc4c(c3C(=O)O)CC(C)(C)CC4)sc2c1 [Compound I-26] — within 1.5-fold, 2.01 nM
- CC(C)CN(C[C@@H](O)[C@H](Cc1ccccc1)NC(=O)O[C@H]1CO[C@@]2(C)OCC[C@@H]12)S(=O)(=O)c1ccc2nc(NCCCCOc3ccc(-c4sc5c(c4C(=O)O)CC(C)(C)CC5)cc3)sc2c1 [Compound I-27] — 2.3-fold higher, 3.7 nM
- COc1ccc(S(=O)(=O)N(CC(C)C)C[C@@H](O)[C@H](Cc2ccc(OCc3ccccc3-c3sc4c(c3C(=O)O)CC(C)(C)CC4)cc2)NC(=O)O[C@@H]2C[C@@H]3[C@@H](OC(C)=O)CO[C@@H]3C2)cc1 [Compound I-28] — the same, 1.63 nM
- COc1ccc(S(=O)(=O)N(CC(C)C)C[C@@H](O)[C@H](Cc2ccccc2)NC(=O)O[C@H]2CO[C@@]3(CNC(=O)/C=C/c4sc5c(c4C(=O)O)CC(C)(C)CC5)OCC[C@@H]23)cc1 [Compound I-31] — 2.2-fold lower, 0.73 nM
- CC1(C)CCc2sc(-c3ccc(CNC(=O)OC[C@]45OCC[C@H]4[C@@H](OC(=O)N[C@@H](Cc4ccccc4)[C@H](O)CN(CC(F)F)S(=O)(=O)c4ccc6ncsc6c4)CO5)cc3)c(C(=O)O)c2C1 [Compound I-32] — within 1.5-fold, 1.37 nM
- COc1ccc(S(=O)(=O)N(CC(C)C)C[C@@H](O)[C@H](Cc2ccccc2)NC(=O)O[C@H]2CO[C@@]3(CNC(=O)OCCCc4sc5c(c4C(=O)O)CC(C)(C)CC5)OCC[C@@H]23)cc1 [Compound I-34] — within 1.5-fold, 1.28 nM
- CC1(C)CCc2sc(-c3cccc(CCCN(C[C@@H](O)[C@H](Cc4ccccc4)NC(=O)O[C@H]4CO[C@@]5(C)OCC[C@@H]45)S(=O)(=O)c4ccc5ncsc5c4)c3)c(C(=O)O)c2C1 [Compound I-36] — within 1.5-fold, 1.88 nM
- COc1ccc(S(=O)(=O)N(CC(C)C)CC(O)C(Cc2ccc(NCc3ccccc3-n3nc4c(c3C(=O)O)CC3(CCCC3)CC4)cc2)NC(=O)OC2COC3(C)OCCC23)cc1 (centres unmarked) [Compound I-38] — 2.4-fold higher, 3.85 nM
- COc1ccc(S(=O)(=O)N(CC(C)C)CC(O)C(Cc2ccc(OCc3ccccc3-c3ccc4c(c3C(=O)O)CC(C)(C)CC4)cc2)NC(=O)OC2COC3(C)OCCC23)cc1 (centres unmarked) [Compound I-40] — within 1.5-fold, 1.9 nM
- COc1ccc(S(=O)(=O)N(CC(C)C)CC(O)C(Cc2ccc(-c3sc4c(c3C(=O)O)CC(C)(C)CC4)cc2)NC(=O)OC2COC3(C)OCCC23)cc1 (centres unmarked) [Compound I-41] — within 1.5-fold, 1.11 nM
- COc1ccc(S(=O)(=O)N(CC(C)C)CC(O)C(Cc2ccc(N(Cc3ccccc3-c3sc4c(c3C(=O)O)CC(C)(C)CC4)CC3CCCCC3)cc2)NC(=O)OC2COC3(C)OCCC23)cc1 (centres unmarked) [Compound I-42] — 14-fold higher, 23.4 nM
- COc1ccc(S(=O)(=O)N(CC(C)C)CC(O)C(Cc2ccc(N(C)Cc3sc4c(c3C(=O)O)CC(C)(C)CC4)cc2)NC(=O)OC2COC3(C)OCCC23)cc1 (centres unmarked) [Compound I-46] — within 1.5-fold, 1.86 nM
- COc1ccc(S(=O)(=O)N(CC(C)C)CC(O)C(Cc2ccc(OCc3ccccc3-c3c(C(=O)O)c4c(n3C)CCCC4)cc2)NC(=O)OC2COC3(C)OCCC23)cc1 (centres unmarked) [Compound I-50] — within 1.5-fold, 1.13 nM
- CC(C)CN(CC(O)C(Cc1ccc(OCc2ccccc2-c2sc3c(c2C(=O)O)CC(C)(C)CC3)cc1)NC(=O)OC1COC2(C)OCCC12)S(=O)(=O)c1ccc(N)cc1 (centres unmarked) [Compound I-52] — within 1.5-fold, 2.34 nM
- COc1ccc(S(=O)(=O)N(CC(C)C)CC(O)C(Cc2ccc(OCc3ccccc3-n3nc4c(c3C(=O)O)CC3(CCCC3)CC4)cc2)NC(=O)OC2COC3(C)OCCC23)cc1 (centres unmarked) [Compound I-53] — 2-fold lower, 0.83 nM
- COc1ccc(S(=O)(=O)N(CC(C)C)CC(O)C(Cc2ccc(OCc3ccccc3-c3sc4c(c3C(=O)O)CC(F)(F)CC4)cc2)NC(=O)OC2COC3(C)OCCC23)cc1 (centres unmarked) [Compound I-54] — within 1.5-fold, 1.24 nM
- COc1ccc(S(=O)(=O)N(CC(C)C)CC(O)C(Cc2ccc(OCc3ccccc3-c3sc4c(c3C(=O)O)CC(C)(C)CC4)cc2)NC(=O)OC2COC3(C)OCC(O)C23)cc1 (centres unmarked) [Compound I-56] — within 1.5-fold, 1.21 nM
- COc1ccc(S(=O)(=O)N(CC(C)C)CC(O)C(Cc2ccc(OC(C)(C)C(=O)NS(=O)(=O)c3cccc(-c4ccc(F)cc4F)c3)cc2)NC(=O)OC2COC3(C)OCCC23)cc1 (centres unmarked) [Compound I-57] — 1.5-fold lower, 1.07 nM
- COc1ccc(S(=O)(=O)N(CC(C)C)CC(O)C(Cc2ccc(OCc3ccccc3-c3sc4c(c3C(=O)NS(=O)(=O)C3CC3)CC(C)(C)CC4)cc2)NC(=O)OC2COC3(C)OCCC23)cc1 (centres unmarked) [Compound I-58] — within 1.5-fold, 1.11 nM
- CC(C)CN(CC(O)C(Cc1ccc(Oc2ccc(-c3ccc(F)cc3F)cc2C(=O)O)cc1)NC(=O)OC1COC2(C)OCCC12)S(=O)(=O)c1ccc2ncsc2c1 (centres unmarked) [Compound I-59] — within 1.5-fold, 1.19 nM
- CC(C)CN(CC(O)C(Cc1ccc(OCc2cc(C(=O)O)cc(-c3ccc(F)cc3F)c2)cc1)NC(=O)OC1COC2(C)OCCC12)S(=O)(=O)c1ccc2ncsc2c1 (centres unmarked) [Compound I-60] — within 1.5-fold, 1.6 nM
- CC(C)CN(CC(O)C(Cc1ccc(OCc2cc(-c3ccc(F)cc3F)ccc2C(=O)O)cc1)NC(=O)OC1COC2(C)OCCC12)S(=O)(=O)c1ccc2ncsc2c1 (centres unmarked) [Compound I-61] — within 1.5-fold, 1.9 nM
- CC(C)CN(CC(O)C(Cc1ccc(OCc2cc(-c3ccc(F)cc3F)ccc2C(N)=O)cc1)NC(=O)OC1COC2(C)OCCC12)S(=O)(=O)c1ccc2ncsc2c1 (centres unmarked) [Compound I-62] — 2-fold lower, 0.82 nM
- COc1ccc(S(=O)(=O)N(CC(C)C)CC(O)C(Cc2ccc(COc3ccc(-c4ccc(F)cc4F)cc3C(=O)O)cc2)NC(=O)OC2COC3(C)OCCC23)cc1 (centres unmarked) [Compound I-63] — 1.8-fold lower, 0.89 nM
- CC(C)CN(CC(O)C(Cc1ccc(OCc2ccccc2-c2ccccc2C(=O)O)cc1)NC(=O)OC1COC2(C)OCCC12)S(=O)(=O)c1ccc2ncsc2c1 (centres unmarked) [Compound I-64] — within 1.5-fold, 1.3 nM
- COc1ccc(S(=O)(=O)N(CC(C)C)CC(O)C(Cc2ccc(OCCNC(=O)C(=NO)c3cc(O)cc(Cl)c3)cc2)NC(=O)OC2COC3(C)OCCC23)cc1 (centres unmarked) [Compound I-67] — within 1.5-fold, 1.88 nM
- COc1ccc(S(=O)(=O)N(CC(C)C)CC(O)C(Cc2ccc(OCCNC(=O)c3cc(Cl)cc(Cl)c3O)cc2)NC(=O)OC2COC3(C)OCCC23)cc1 (centres unmarked) [Compound I-68] — within 1.5-fold, 1.83 nM
- COc1ccc(S(=O)(=O)N(CC(C)C)CC(O)C(Cc2ccc(OCc3ccccc3NC(=O)c3cc(Cl)cc(Cl)c3O)cc2)NC(=O)OC2COC3(C)OCCC23)cc1 (centres unmarked) [Compound I-69] — within 1.5-fold, 1.17 nM
